7 compounds from patent publication US10029992B2, “Diaminotriazine compounds and their use as herbicides” (BASF SE, priority 2014, dated 2018) can be followed below.

Structures are written as SMILES.

One assay concerns SETFA. Nature of the assay: Greenhouse experiment, post-emergence treatment. Type of assay: in vivo, Setaria faberi. The following applies: post-emergence method, application rate 125 g/ha. The method, then: (§1) The seeds of the test plants were sown separately for each species. […] For this purpose, the test plants were either sown directly and grown in the same containers, or they were first grown separately as seedlings and transplanted into the test containers a few days prior to treatment. Depending on the species, the plants were kept at 10-25° C. or 20-35° C., respectively. The test period extended over 2 to 4 weeks. During this time, the plants were tended, and their response to the individual treatments was evaluated. Evaluation was carried out using a scale from 0 to 100. 100 means no emergence of the plants, or complete destruction of at least the aerial moieties, and 0 means no damage, or normal course of growth. A moderate herbicidal activity is given at values of at least 60, a good herbicidal activity is given at values of at least 70, and a very good herbicidal activity is given at values of at least 85. […] [table]

The next assay relates to ECHCG. Nature of the assay: Greenhouse experiment, post-emergence treatment. Type of assay: in vivo, Echinochloa crus-galli. The following applies: post-emergence method, application rate 125 g/ha. The method, then: as §1
For a further assay, the system named is ALOMY. Put plainly: Greenhouse experiment, pre-emergence treatment. Type of assay: in vivo, Alopecurus myosuroides. The following applies: pre-emergence method, application rate 0.25 kg/ha. From the text: The culture containers used were plastic flowerpots containing loamy sand with approximately 3.0% of humus as the substrate. The seeds of the test plants were sown separately for each species.
For the pre-emergence treatment, the active ingredients, which had been suspended or emulsified in water, were applied directly after sowing by means of finely distributing nozzles. The containers were irrigated gently to promote germination and growth and subsequently covered with transparent plastic hoods until the plants had rooted. This cover caused uniform germination of the test plants, unless this had been impaired by the active ingredients.
Depending on the species, the plants were kept at 10-25° C. or 20-35° C., respectively.
The test period extended over 2 to 4 weeks. During this time, the plants were tended, and their response to the individual treatments was evaluated.
Evaluation was carried out using a scale from 0 to 100. 100 means no emergence of the plants, or complete destruction of at least the aerial moieties, and 0 means no damage, or normal course of growth. A moderate herbicidal activity is given at values of at least 60, a good herbicidal activity is given at values of at least 70, and a very good herbicidal activity is given at values of at least 85.
The plants used in the greenhouse experiments were of the following species: […]

The test system of another assay is APESV. Nature of the assay: Greenhouse experiment, pre-emergence treatment. Type of assay: in vivo, Apera spica-venti. Particulars: pre-emergence method, application rate 0.25 kg/ha. Summed up: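 Seeds were sown in loamy sand with about 3.0% humus, and compounds suspended or emulsified in water were sprayed right after sowing. Pots were kept under transparent hoods until rooting at 10-25° C. or 20-35° C. depending on species, and damage was scored 0-100 after 2 to 4 weeks.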

The test system of assay [1] is AMARE. Nature of the assay: Greenhouse experiment, pre-emergence treatment. Type of assay: in vivo, Amaranthus retroflexus. Particulars: pre-emergence method, application rate 0.25 kg/ha.
In a further assay the test system is ELEIN. Put plainly: Greenhouse experiment, post-emergence treatment. Type of assay: in vivo, Eleusine indica. Particulars: post-emergence method, application rate 125 g/ha. The protocol:
as §1

The next assay has as its system PHBPU. Put plainly: Greenhouse experiment, post-emergence treatment. Type of assay: in vivo, Pharbitis purpurea. The following applies: post-emergence method, application rate 125 g/ha. The method, then:
as §1

Assay [2] has as its system AMARE. Put plainly: Greenhouse experiment, post-emergence treatment. The following applies: post-emergence method, application rate 125 g/ha. Type of assay: in vivo, Amaranthus retroflexus. The protocol:
as §1

In the next assay the test system is STEME. Put plainly: Greenhouse experiment, post-emergence treatment. Type of assay: in vivo, Stellaria media. Particulars: post-emergence method, application rate 63 g/ha. The protocol: as §1
Another assay relates to CAPBP. Nature of the assay: Greenhouse experiment, post-emergence treatment. Type of assay: in vivo, Capsella bursa-pastoris. Particulars: post-emergence method, application rate 63 g/ha. The protocol:
as §1

In the next assay the test system is SETVI. Put plainly: Greenhouse experiment, post-emergence treatment. Particulars: post-emergence method, application rate 63 g/ha. Type of assay: in vivo, Setaria viridis. The method, then: as §1
For the next assay, the system named is ABUTH. Put plainly: Greenhouse experiment, post-emergence treatment. Particulars: post-emergence method, application rate 125 g/ha. Type of assay: in vivo, Abutilon theophrasti. The protocol:
as §1

For `CC(C)(F)c1nc(N)nc(Nc2c(F)cccc2Oc2cc(I)cc(I)c2)n1` [Example 67], the “herbicidal activity against SETFA” value in the assay with SETFA is “good (a good herbicidal activity is given at values of at least 70)”. Further, the “herbicidal activity against ECHCG” value with ECHCG is “good (a good herbicidal activity is given at values of at least 70)”.

Take `CC(C)(F)c1nc(N)nc(Nc2c(F)cccc2Oc2ccccc2)n1` [Example 25]: the “herbicidal activity against ALOMY” value in the assay with ALOMY is “very good (a very good herbicidal activity is given at values of at least 85)”. The “herbicidal activity against APESV” value with APESV is “very good (a very good herbicidal activity is given at values of at least 85)”. In addition, the “herbicidal activity against AMARE” value with AMARE [1] is “very good (a very good herbicidal activity is given at values of at least 85)”.

As for `CC(C)(F)c1nc(N)nc(Nc2c(F)cccc2Oc2cc(Cl)cc(OC(F)(F)F)c2)n1` [Example 64], the “herbicidal activity against ELEIN” value in the assay on ELEIN is recorded as “very good (a very good herbicidal activity is given at values of at least 85)”. Besides, the “herbicidal activity against PHBPU” value in the assay with PHBPU is reported as “very good (a very good herbicidal activity is given at values of at least 85)”. In addition, the “herbicidal activity against SETFA” value in the assay on SETFA is reported as “very good (a very good herbicidal activity is given at values of at least 85)”.

With `COc1cc(C)cc(Oc2cccc(F)c2Nc2nc(N)nc(C(C)(C)F)n2)c1` [Example 63], the “herbicidal activity against AMARE” value with AMARE [2] is on record as “very good (a very good herbicidal activity is given at values of at least 85)”. Further, in the assay with SETFA, the “herbicidal activity against SETFA” value is listed as “very good (a very good herbicidal activity is given at values of at least 85)”. Also, in the assay on ECHCG, the “herbicidal activity against ECHCG” value was “very good (a very good herbicidal activity is given at values of at least 85)”.

For `CC(C)(F)c1nc(N)nc(Nc2c(F)cccc2Oc2cc(C(F)(F)F)cc(C(F)(F)F)c2)n1` [Example 52], the “herbicidal activity against STEME” value in the assay with STEME is listed as “very good (a very good herbicidal activity is given at values of at least 85)”. The “herbicidal activity against CAPBP” value in the assay on CAPBP was “very good (a very good herbicidal activity is given at values of at least 85)”. In the assay on SETVI, the “herbicidal activity against SETVI” value is on record as “very good (a very good herbicidal activity is given at values of at least 85)”.

With `COc1cc(Oc2cccc(F)c2Nc2nc(N)nc(C(C)(C)F)n2)cc(C(F)(F)F)c1` [Example 65], the “herbicidal activity against SETFA” value in the assay on SETFA is “very good (a very good herbicidal activity is given at values of at least 85)”. The “herbicidal activity against ECHCG” value in the assay with ECHCG is “very good (a very good herbicidal activity is given at values of at least 85)”. Also, in the assay with ABUTH, the “herbicidal activity against ABUTH” value is listed as “very good (a very good herbicidal activity is given at values of at least 85)”.

As for `CCOc1cc(OCC)cc(Oc2cccc(F)c2Nc2nc(N)nc(C(C)(C)F)n2)c1` [Example 68], in the assay with SETFA, the “herbicidal activity against SETFA” value was “very good (a very good herbicidal activity is given at values of at least 85)”. The “herbicidal activity against ECHCG” value in the assay with ECHCG is “very good (a very good herbicidal activity is given at values of at least 85)”. Moreover, the “herbicidal activity against ABUTH” value in the assay with ABUTH was “very good (a very good herbicidal activity is given at values of at least 85)”.
